Measurements taken from patent US6030950A, “Pharmaceutical therapeutic use of glutathione derivative” (priority 1987, dated 2000).
Read-outs that look alike come from different tables or passages of the source.

Key:
[1] = rabbit ear venous blood, oxygen deficiency stress, 10 mg/kg, 5-10 minutes after administration; n=30
Experimental: 2.1) Animal Experiments with rabbits to improve and/or normalize the redox status of the blood:
In 5 different rabbits, the following parameters were measured by the method and with the instrument of VINCENT in 30 experiments in venous blood:
redox potential E H or electron potential: rH2
The values were measured in the venous blood of the ear after a defined oxygen deficiency stress.
The following values were determined 5-10 minutes after the glutathione one was administered:
Boundary conditions: Temperature of 20° C., air pressure of 767 mm Hg.

human erythrocytes = conditions: incubation with 0.5 mg of reduced glutathione, 37° C., 30 minutes; 10 mL heparinised venous blood; n=20, average and standard deviation
Experimental: 1.1) In vitro experiment with human erythrocytes to improve and normalize the redox behavior:
Human venous blood (10 mL) was taken from each of 20 patients with different diseases and prevented from clotting by the addition of heparin.

[2] = system: malignant melanoma from man; conditions: 300 mg three times per week
Excerpt: 2.4) Experiment with 40 healthy gray mice after transplantation of a malignant melanoma from person.
Forty healthy gray mice were inoculated with 10^6 malignant melanoma cells each.
III.1 Experiment with 40 healthy gray mice after transplantation of a malignant melanoma from person.

[3] = human blood, oxygen deficiency stress, 600 mg slowly intravenously, 10 minutes after administration; n=50
Experimental: 2.2) Self-experiment on man to improve and/or normalize the redox status of the blood:
After a defined oxygen deficiency stress, the same parameters were determined in human blood as in the trial described above. In all 50 trials were carried out on different days
After that, glutathione was slowly administered intravenously in an amount of 600 mg.
Boundary conditions: Temperature of 20° C., air pressure of 758-770 mm Hg.

[4] = biological target: glucose-6-phosphate dehydrogenase (Homo sapiens, UniProt P11413); conditions: incubation with 0.5 mg reduced glutathione, 37° C., 30 minutes; n=22, average and standard deviation
Excerpt: (§1) 1.2) In vitro experiment on cell systems of human erythrocytes Under the same conditions as those for the experiment described above, the enzymes, glucose-6-phosphate dehydrogenase and glutathione reductase, from the erythrocytes of 22 patients, were investigated in vitro. n=22 (average value and standard deviation are given)

glutathione reductase = glutathione reductase (Homo sapiens, UniProt P00390); conditions: incubation with 0.5 mg reduced glutathione, 37° C., 30 minutes; n=22, average and standard deviation
Excerpt: as §1

[5] = cited from earlier work
[6] = in vivo
[7] = cited from earlier work; remark: listed apart in the source

Chain of glutathione reductase (P00390 44-522): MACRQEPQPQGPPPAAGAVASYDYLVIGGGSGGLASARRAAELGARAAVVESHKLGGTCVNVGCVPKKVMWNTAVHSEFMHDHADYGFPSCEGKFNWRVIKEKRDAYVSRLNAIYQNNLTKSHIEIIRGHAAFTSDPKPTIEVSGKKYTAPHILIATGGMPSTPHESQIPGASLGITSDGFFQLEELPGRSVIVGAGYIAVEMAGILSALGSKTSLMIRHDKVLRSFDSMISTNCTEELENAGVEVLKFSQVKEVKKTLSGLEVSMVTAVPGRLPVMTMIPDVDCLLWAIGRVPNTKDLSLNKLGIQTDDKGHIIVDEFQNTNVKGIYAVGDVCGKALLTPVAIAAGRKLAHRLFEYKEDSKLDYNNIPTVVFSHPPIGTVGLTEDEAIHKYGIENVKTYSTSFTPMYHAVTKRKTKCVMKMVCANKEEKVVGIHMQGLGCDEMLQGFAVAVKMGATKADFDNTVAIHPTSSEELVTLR
Chain of glucose-6-phosphate dehydrogenase (P11413 2-515 limits assumed): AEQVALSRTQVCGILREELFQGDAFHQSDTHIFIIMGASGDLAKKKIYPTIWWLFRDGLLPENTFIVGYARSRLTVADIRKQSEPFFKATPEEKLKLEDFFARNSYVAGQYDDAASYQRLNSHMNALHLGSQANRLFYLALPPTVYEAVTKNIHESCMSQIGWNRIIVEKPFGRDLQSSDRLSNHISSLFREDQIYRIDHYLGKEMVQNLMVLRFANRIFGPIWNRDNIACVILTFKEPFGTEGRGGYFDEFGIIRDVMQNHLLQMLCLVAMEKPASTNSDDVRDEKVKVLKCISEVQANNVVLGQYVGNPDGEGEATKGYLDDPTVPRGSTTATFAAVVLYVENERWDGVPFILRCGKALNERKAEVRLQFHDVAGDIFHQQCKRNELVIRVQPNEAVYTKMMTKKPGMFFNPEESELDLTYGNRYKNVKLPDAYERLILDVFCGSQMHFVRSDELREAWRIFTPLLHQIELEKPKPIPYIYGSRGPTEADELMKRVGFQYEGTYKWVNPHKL

## N[C@@H](CCC(=O)N[C@@H](CS)C(=O)NCC(=O)O)C(=O)O [reduced glutathione, gamma-glutamyl-cysteinyl-glycine]
[1]
  redox potential or electron potential rH2: 21.8 ± 0.95
Human erythrocytes
  content of intraerythrocytic reduced glutathione, value of incubation: 1.99±0.15 mU
[2]; 30 mice, 10^6 melanoma cells
  further animals died within 20 days: five
  further animals died within 30 days: seven
[2]; 30 mice, 10^6 melanoma cells, untreated controls died within 8-12 days
  animals died within 15 days: three
[2]; 30 days after inoculation
  share of treated animals that survived the period of observation: 50%
[2]; of 30 treated mice, 30 days after inoculation
  animals that survived the period of observation: Fifteen
[3]
  redox potential or electron potential rH2: 23.1 ± 1.4
[4]
  glucose-6-phosphate dehydrogenase, value after incubation: 179±16 mU/10^9 erys.
Glutathione reductase
  glutathione reductase, value after incubation: 11.3±1.2 U/10^11 erys.
[5]; COOH(1)
  pK value for COOH(1): 3.53
[5]; COOH(2)
  pK value for COOH(2): 2.12
[5]; NH3^+
  pK value for NH3+: 8.66
[5]; SH
  pK value for SH: 9.66
[6]
  toxicity of the therapeutic dosage: nontoxic
[7]; ethanol
  solubility in ethanol: soluble
[7]; water and physiological salt solution
  solubility in water and physiological salt solution: readily soluble
